Tests used:
CT Rix7 = target: T1, CT Rix7 (Thermochaetoides thermophila, UniProt G0RZG1, E303Q/E602Q); assay: cryo-EM structure of the complex ([…] A); conditions: co-purified nucleotide, no ATP added; 5 mM MgCl2, pH 8; nucleotide-binding pockets of D1 and D2 AAA domains; ATP geometry restrained to reference structure
T1 construct: gene CTHT_0002840; full-length (NTD residues 1-192 not seen in map), codon-optimised, pET24b, C-terminal His6, expressed in E. coli BL21(DE3)*; asymmetric homohexamer

[1] = target: Chaetomium thermophilum Rix7 double Walker B mutant (CT Rix7 E303Q/E602Q) (Chaetomium thermophilum); assay: cryo-EM structure; CT Rix7 E303Q/E602Q at ~0.6 mg/ml after SEC in Buffer A (20 mM Tris-HCl pH 8, 150 mM NaCl, 5 mM MgCl2, 0.5 mM DTT); no ATP and no substrate added; no symmetry imposed (C1); 4.5 Å

T1 sequence (G0RZG1 entry or part of it E303Q/E602Q): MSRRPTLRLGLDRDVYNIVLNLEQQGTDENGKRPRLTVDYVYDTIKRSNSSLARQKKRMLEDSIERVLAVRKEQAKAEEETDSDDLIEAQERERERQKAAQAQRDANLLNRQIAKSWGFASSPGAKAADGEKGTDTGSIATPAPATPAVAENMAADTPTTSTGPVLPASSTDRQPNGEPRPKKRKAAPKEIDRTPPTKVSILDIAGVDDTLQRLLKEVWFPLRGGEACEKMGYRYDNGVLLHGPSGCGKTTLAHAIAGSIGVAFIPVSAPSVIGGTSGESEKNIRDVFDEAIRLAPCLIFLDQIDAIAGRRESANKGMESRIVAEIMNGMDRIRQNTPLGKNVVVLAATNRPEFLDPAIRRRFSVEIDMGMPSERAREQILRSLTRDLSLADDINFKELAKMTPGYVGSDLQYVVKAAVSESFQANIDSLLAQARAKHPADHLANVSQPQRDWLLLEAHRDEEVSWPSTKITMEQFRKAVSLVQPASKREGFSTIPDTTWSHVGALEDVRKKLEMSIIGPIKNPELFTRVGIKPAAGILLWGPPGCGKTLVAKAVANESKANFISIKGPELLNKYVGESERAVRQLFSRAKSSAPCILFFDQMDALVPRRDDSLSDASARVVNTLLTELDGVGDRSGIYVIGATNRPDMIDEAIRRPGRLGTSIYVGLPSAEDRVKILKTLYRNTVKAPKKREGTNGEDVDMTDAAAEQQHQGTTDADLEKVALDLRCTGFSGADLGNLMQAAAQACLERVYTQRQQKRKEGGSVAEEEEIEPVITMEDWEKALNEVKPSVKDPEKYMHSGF

Compound	cryo-EM structure of the complex (4.5 A) (CT Rix7)	stoichiometry N [1]
Nc1ncnc2c1ncn2[C@@H]1O[C@H](COP(=O)(O)OP(=O)(O)OP(=O)(O)O)[C@@H](O)[C@H]1O [ATP]	In the D1 AAA domain, ATP is present in the nucleotide pockets of all six protomers	
Chaetomium thermophilum Rix7 double Walker B mutant (CT Rix7 E303Q/E602Q) (enzyme)		6

Source: paper PMC6355894, “Cryo-EM structure of the essential ribosome assembly AAA-ATPase Rix7” (Nature Communications, 2019)
